# Source: US12036226B2, “Methods of treating subjects having diabetes with chronic kidney disease” (Poxel SA, priority 2018, dated 2024)
# Values joined by “and” are separate entries in the source; they are usually repeats but may differ in a detail not shown here. Equal entries are not always repeated. Where two headings read alike, the source gives them in different places.
# Experiment: Phase 1 study of pharmacokinetics and safety of imeglimin in subjects with renal impairment compared to normal renal function
# Format: in vivo, human
# Conditions: for AUC: read-out: AUC0-τ
# Procedure: An open-label, parallel-group, multi-center, multiple oral dose study to investigate the pharmacokinetics of imeglimin in subjects with renal impairment compared to subjects with normal renal function was completed.
# In this study, a total of 51 subjects received imeglimin at the daily dose of 1000 mg, administered either as 1000 mg QD (once a day) or 500 mg bid (twice a day) during 8 days. […] Twenty-four control subjects with normal renal function were matched to mild and moderate (10 receiving QD and 8 receiving bid regimen) and to severe (6 receiving bid regimen) renal impaired subjects. Measurement of the urine to plasma ratio of creatinine using 24 hours urine sampling was calculated (CLCrea).
# Imeglimin was administered in the morning time during 8 consecutive days in the group of subjects receiving 1000 mg once a day and in the morning and evening time during 7 consecutive days followed by a morning administration of 500 mg in the morning time on Day 8 in the group of subjects receiving 500 mg twice a day. Morning administrations on Days 1 and 8 were performed on a fasted state, after a 10 hours overnight fasting and during 4 hours after imeglimin administration.
# Inclusion Criteria: For subjects with normal renal functions: CLCrea>80 mL/min based on calculation using 24-hrs sampling on day −2. For subjects with impaired renal function: CLCrea 50 to 80 mL/min for subjects with mild renal impairment, 30 to <50 mL/min for subjects with moderate renal impairment, and <30 mL/min for subjects with severe renal impairment based on calculation using 24-hrs sampling on day −2.
# Pharmacokinetic parameters included apparent volume of distribution during the terminal phase following extravascular administration (Vz/F), area under the curve of the plasma concentration as a function of time (AUC0-t), the maximum observed concentration (Cmax), the time to maximum concentration (tmax), the plasma half-life (t1/2), the total body clearance of drug from plasma following extravascular administration (CL/F), and other parameters.
# The urinary excretion parameters of imeglimin in subjects with differing degrees of renal impairment following QD or bid oral doses of imeglimin on day 8 are summarized in Table 3 and Table 4. Parameters measured include amount of unchanged drug excreted in urine as a function of time (Ae0-t), renal clearance (CLR), and the amount of unchanged drug excreted in urine during one dosing interval (Ae0-τ), and the percentage of administered dose excreted in urine during one dosing interval (fe0-τ).
# For the evaluation of safety and tolerability of multiple oral doses of 1000 mg imeglimin QD (i.e. a total dose of 8000 mg imeglimin) or 500 mg imeglimin BID (i.e. a total dose of 7500 mg imeglimin), laboratory tests (hematology, clinical chemistry, urinalysis), determination of vital signs, ECG recordings, questioning of AEs and physical examinations were performed. […] The incidence of AEs observed within the course of the study was low. Overall 31 out of 51 subjects reported 54 treatment emergent AEs. Of these, only 15 were judged as likely related to the study drug. The majority (39 AEs) were assessed as unlikely related. Based on these low incidence no clear differences between the dose regimens and between the renal impairment groups can be shown.
# [1] = 500 mg bid oral, Day 8, CKD Stage 2 (mild renal impairment) (N = 4), geometric mean (CV %)
# [2] = 500 mg bid oral, Day 8, CKD Stage 3 (moderate renal impairment) (N = 6), geometric mean (CV %)
# [3] = 500 mg bid oral, Day 8, CKD Stage 4 (severe renal impairment) (N = 5), geometric mean (CV %)
# [4] = 500 mg bid oral, Day 8, Part 1 CKD Stage 2 (mild renal impairment; N = 4), geometric mean
# [5] = 500 mg bid oral, Day 8, Part 1 CKD Stage 3 (moderate renal impairment; N = 6), geometric mean
# [6] = 500 mg bid oral, Day 8, Part 1 normal renal function (N = 8), geometric mean
# [7] = 500 mg bid oral, Day 8, Part 2 CKD Stage 4 (severe renal impairment; N = 5), geometric mean
# [8] = 500 mg bid oral, Day 8, Part 2 normal renal function (N = 6), geometric mean
# [9] = 500 mg bid oral, Day 8, normal renal function (N = 6), geometric mean (CV %)
# [10] = 500 mg bid oral, Day 8, normal renal function (N = 8), geometric mean (CV %)
# [11] = 1000 mg QD or 500 mg bid over 8 days, all groups
# [12] = 1000 mg QD oral, Day 8, CKD Stage 3 (moderate renal impairment) (N = 6), geometric mean
# [13] = 1000 mg QD oral, Day 8, CKD stage 2 (mild renal impairment; N = 5), geometric mean
# [14] = 1000 mg QD oral, Day 8, normal renal function (N = 10), geometric mean
# [15] = human, plasma, po, 500 mg, 500 mg bid oral, Day 8, Part 1 CKD Stage 2 (mild renal impairment; N = 4), geometric mean
# [16] = human, plasma, po, 500 mg, 500 mg bid oral, Day 8, Part 1 CKD Stage 3 (moderate renal impairment; N = 6), geometric mean
structure (smiles),measurement,setting,value
"C[C@H]1N=C(N(C)C)N=C(N)N1 [imeglimin, (6R)—N^2, N^2,6-trimethyl-3,6-dihydro-1,3,5-triazine-2,4-diamine]",Ae0-t,[1],404 (16.4) mg
same,Ae0-τ,[1],215 (11.5) mg
same,"feτ (fraction of dose excreted in urine, 12-hour dosing interval)",[1],43% and 42.9 (11.5) %
same,Ae0-t,[2],328 (22.6) mg
same,Ae0-τ,[2],199 (29.1) mg
same,"feτ (fraction of dose excreted in urine, 12-hour dosing interval)",[2],40% and 39.8 (29.1) %
same,Ae0-t,[3],357 (25.5) mg
same,Ae0-τ,[3],209 (15.6) mg
same,"feτ (fraction of dose excreted in urine, 12-hour dosing interval)",[3],42% and 41.8 (15.6) %
same,CL/F,[4],754 mL/min
same,Cpre,[4],572 ng/mL
same,CL/F,[5],485 mL/min
same,Cmin,[5],808 ng/mL
same,Cpre,[5],996 ng/mL
same,CL/F,[6],1128 mL/min
same,Cpre,[6],254 ng/mL
same,CL/F,[7],336 mL/min
same,Cmin,[7],1211 ng/mL
same,Cpre,[7],1335 ng/mL
same,CL/F,[8],1195 mL/min
same,Cmin,[8],169 ng/mL
same,Cpre,[8],209 ng/mL
same,Ae0-t,[9],298 (30.6) mg
same,Ae0-τ,[9],229 (25.3) mg
same,"feτ (fraction of dose excreted in urine, 12-hour dosing interval)",[9],45.9 (25.3) %
same,Ae0-t,[10],307 (37.7) mg
same,Ae0-τ,[10],222 (22.6) mg
same,"feτ (fraction of dose excreted in urine, 12-hour dosing interval)",[10],44.4 (22.6) %
same,number of treatment emergent AEs,[11],54
same,subjects reporting treatment emergent AEs,[11],31 out of 51 subjects
same,Ae0-t (unchanged drug excreted in urine),[12],453 mg
same,Ae0-τ,[12],345 mg
same,CL/F,[12],573 mL/min
same,Cpre,[12],382 ng/mL
same,feτ (percentage of dose excreted in urine during one dosing interval),[12],34.5%
same,CL/F,[13],828 mL/min
same,Cpre,[13],181 ng/mL
same,Ae0-t (unchanged drug excreted in urine),[14],460 mg
same,Ae0-τ,[14],386 mg
same,CL/F,[14],1082 mL/min
same,Cav,[14],642 ng/mL
same,Cpre,[14],136 ng/mL
same,feτ (percentage of dose excreted in urine during one dosing interval),[14],38.6%
same,"QRS-, QT intervals and corrected QTc-intervals (Bazett, Fridericia)",ECG recordings,did not reveal any relevant changes
same,vital signs,following the administration of imeglimin,did not show any clinically relevant changes
same,clinical laboratory parameters,"human, in vivo",no significant abnormality observed
same,half-life,"human, plasma, oral, across groups",13 to 26 h
same,Tmax,"human, plasma, oral, post-dose, across renal function groups and time, read-out: Median Tmax",3.5 to 5 h
same,Cmax,[15],1320 ng/mL
same,half-life,[15],26.1 h
same,AUC,[15],11100 ng·h/mL
same,concentration at 8 day,"human, plasma, po, 500 mg, 500 mg bid oral, Day 8, Part 1 CKD Stage 2 (mild renal impairment; N = 4), geometric mean, read-out: Cav",921 ng/mL
same,concentration at 8 day,"human, plasma, po, 500 mg, 500 mg bid oral, Day 8, Part 1 CKD Stage 2 (mild renal impairment; N = 4), geometric mean, read-out: Cmin",459 ng/mL
same,Vd/F,"human, plasma, po, 500 mg, 500 mg bid oral, Day 8, Part 1 CKD Stage 2 (mild renal impairment; N = 4), geometric mean, read-out: Vz/F",1700 L
same,Tmax,"human, plasma, po, 500 mg, 500 mg bid oral, Day 8, Part 1 CKD Stage 2 (mild renal impairment; N = 4), median, read-out: tmax",4 h
same,Cmax,[16],2000 ng/mL
same,half-life,[16],21.9 h
same,AUC,[16],17200 ng·h/mL
